The text below walks through data of DBAASP.

Molecules are shown by their SMILES. Values after ≈ are worked out from the molar mass of the structure shown. A value given as a limit tells only on which side of the number the result lay.

Test systems include Aspergillus flavus LM26; Candida albicans LM106; Candida albicans LM108; Aspergillus flavus LM247; Saccharomyces cerevisiae; Serratia marcescens; Pseudomonas aeruginosa; Streptococcus mutans; Streptococcus pneumoniae; Bacillus subtilis; Pseudomonas putida; Salmonella typhimurium; Candida albicans; Bacillus subtilis SMY; Escherichia coli; Staphylococcus aureus 1; Pseudomonas aeruginosa 1; Cryptococcus neoformans; Staphylococcus aureus MR; Aspergillus fumigatus; Sporothrix schenckii.

What all share (assay): ≥ marks a high value that may be exact or a test limit, other limits are often not marked, values filed in µg/mL are converted to µM
For assay [1], the system named is Trichophyton rubrum LM640.
In assay [2] the test system is Candida tropicalis ATCC 13803.
Assay [3] relates to Staphylococcus aureus ATCC 25923.
For assay [4], the system named is Escherichia coli O157:H7 ATCC 43895.
In assay [5] the test system is Salmonella typhimurium ATCC 19430.
Assay [6] relates to Trichosporon beigelii KCTC 7707.
Assay [7] has as its system Candida parapsilosis ATCC 22019.
In assay [8] the test system is Candida albicans ATCC 90028.
The subject of assay [9] is Escherichia coli ATCC 23716.
Assay [10] relates to Enterococcus faecium ATCC 19434.
In assay [11] the test system is Trichophyton rubrum KCTC 6345.
The subject of assay [12] is Pseudomonas aeruginosa ATCC 27853.
The test system of assay [13] is Staphylococcus epidermidis NRRL B-4268.
Assay [14] deals with Klebsiella pneumoniae ATCC 27736.
Assay [15] has as its system Escherichia coli ATCC 10536.
In assay [16] the test system is Trichophyton mentagrophytes.
The subject of assay [17] is Bacillus subtilis ATCC 6633.
Assay [18] concerns Staphylococcus aureus ATCC 9144.
The subject of assay [19] is Pseudomonas aeruginosa ATCC BAA-427.
For assay [20], the system named is Pseudomonas aeruginosa ATCC 47085.
In assay [21] the test system is Fusarium graminearum PH-1.
For assay [22], the system named is Klebsiella pneumoniae ATCC 200603.
Assay [23] has as its system Candida albicans ATCC 10231.
The subject of assay [24] is Candida tropicalis PCM 2681.
For assay [25], the system named is Staphylococcus epidermidis ATCC 14490.
Assay [26] relates to Escherichia coli ATCC 25922.
The subject of assay [27] is Pseudomonas aeruginosa ATCC 9027.

The MIC is the least concentration at which growth counts as inhibited. For the molecule `CC[C@H](C)[C@H](NC(=O)CNC(=O)[C@@H](NC(=O)[C@H](Cc1ccccc1)NC(=O)[C@H](CC(=O)O)NC(=O)[C@H](CCSC)NC(=O)[C@H](CC(=O)O)NC(=O)[C@H](C)N)[C@@H](C)O)C(=O)N[C@@H](C)C(=O)N[C@@H](CCC(=O)O)C(=O)N[C@@H](CO)C(=O)N[C@H](C(=O)N[C@H](C(=O)N[C@@H](CCCCN)C(=O)N[C@@H](CCCCN)C(=O)N[C@H](C(=O)N[C@@H](CCCCN)C(=O)N[C@@H](CCC(=O)O)C(=O)N[C@H](C(=O)N[C@@H](CC(N)=O)C(=O)N[C@@H](C)C(=O)N[C@@H](CCCCN)C(=O)N1CCC[C@H]1C(=O)N1CCC[C@H]1C(=O)N[C@@H](C)C(=O)O)[C@@H](C)O)[C@@H](C)CC)[C@@H](C)CC)[C@@H](C)CC` [ADMDFTGIAESIIKKIKETNAKPPA], the MIC was at least 381 µM in assay [1]; at least 47.6 µM against Aspergillus flavus LM26; at least 47.6 µM with Candida albicans LM106; at least 47.6 µM in assay [2]; at least 381 µM with Candida albicans LM108; at least 47.6 µM in the assay with Aspergillus flavus LM247.

As to `CC(C)C[C@H](NC(=O)CNC(=O)[C@H](C)N)C(=O)N[C@@H](CCC(N)=O)C(=O)N[C@@H](Cc1ccccc1)C(=O)N1CCC[C@H]1C(=O)N[C@H](C(=O)NCC(=O)N[C@@H](CCCN=C(N)N)C(=O)N[C@H](C(=O)N[C@@H](Cc1cnc[nH]1)C(=O)N[C@@H](CCCN=C(N)N)C(=O)N[C@@H](CC(C)C)C(=O)N[C@@H](CC(C)C)C(=O)N[C@@H](CCCN=C(N)N)C(=O)N[C@@H](CCCCN)C(=O)O)C(C)C)C(C)C` [AGLQFPVGRVHRLLRK], the MIC was determined as 4.33 µM (≈ 8 µg/mL) in the assay with Saccharomyces cerevisiae; 25 µM (≈ 46.2 µg/mL) in assay [3]; 6.3 µM (≈ 11.6 µg/mL) in assay [4]; 1.08 µM (≈ 2 µg/mL) with Serratia marcescens; 12.5 µM (≈ 23.1 µg/mL) in the assay on Pseudomonas aeruginosa; 6.3 µM (≈ 11.6 µg/mL) in assay [5]. In addition, the MIC in assay [6] worked out at 12.5 µM (≈ 23.1 µg/mL); with Streptococcus mutans it was 2.17 µM (≈ 4 µg/mL); against Streptococcus pneumoniae, 2.17 µM (≈ 4 µg/mL); in assay [7], 25 µM (≈ 46.2 µg/mL); in the assay on Bacillus subtilis, 2.17 µM (≈ 4 µg/mL); in the assay on Pseudomonas putida it was 2.17 µM (≈ 4 µg/mL). In addition, the MIC against Salmonella typhimurium was 1.08 µM (≈ 2 µg/mL); in [8], 12.5 µM (≈ 23.1 µg/mL); against Candida albicans, 4.33 µM (≈ 8 µg/mL); in assay [9] it was at least 139 µM; in assay [10], 25 µM (≈ 46.2 µg/mL); in the assay on Bacillus subtilis SMY, at least 139 µM. Moreover, the MIC in assay [11] was 12.5 µM (≈ 23.1 µg/mL); with Escherichia coli it was 2.17 µM (≈ 4 µg/mL); against Staphylococcus aureus 1, 12.5 µM (≈ 23.1 µg/mL); against Pseudomonas aeruginosa 1, 6.3 µM (≈ 11.6 µg/mL); in the assay with Cryptococcus neoformans, 4.33 µM (≈ 8 µg/mL); in assay [12], 12.5 µM (≈ 23.1 µg/mL).

Take `CC(C)C[C@H](NC(=O)[C@H](CCCCN)NC(=O)[C@H](CC(C)C)NC(=O)[C@H](Cc1ccccc1)NC(=O)[C@H](CCCN=C(N)N)NC(=O)[C@H](CCCN=C(N)N)NC(=O)[C@H](Cc1ccccc1)NC(=O)[C@H](Cc1c[nH]c2ccccc12)NC(=O)[C@H](CCCCN)NC(=O)[C@H](CCCN=C(N)N)NC(=O)[C@H](Cc1ccccc1)NC(=O)[C@H](CCCN=C(N)N)NC(=O)[C@H](CCCN=C(N)N)NC(=O)[C@@H](N)Cc1ccccc1)C(=O)N[C@@H](Cc1ccccc1)C(N)=O` [FRRFRKWFRRFLKLF]: the minimum inhibitory concentration (MIC) in assay [13] was 13.2 µM (≈ 29.1 µg/mL); in assay [14], 6 µM (≈ 13.2 µg/mL); in assay [15] it was 6 µM (≈ 13.2 µg/mL); in [16], 3 µM (≈ 6.61 µg/mL); in assay [17] it was 11.3 µM (≈ 24.9 µg/mL); in assay [7] it was 3 µM (≈ 6.61 µg/mL). The MIC in [18] turned out to be 6.25 µM (≈ 13.8 µg/mL); with Candida albicans, 3.1 µM (≈ 6.83 µg/mL); against Staphylococcus aureus MR it was 25 µM (≈ 55.1 µg/mL); in [19], 25 µM (≈ 55.1 µg/mL); with Aspergillus fumigatus it was 3 µM (≈ 6.61 µg/mL); against Sporothrix schenckii, 3 µM (≈ 6.61 µg/mL). Also, in the assay on Cryptococcus neoformans, the MIC was found to be 6.1 µM (≈ 13.4 µg/mL).

As to `CC(C)C[C@H](NC(=O)CN)C(=O)N[C@@H](CC(C)C)C(=O)N[C@@H](CCCN=C(N)N)C(=O)N[C@@H](CCCCN)C(=O)N[C@@H](Cc1c[nH]c2ccccc12)C(=O)NCC(=O)N[C@@H](CCCCN)C(=O)N[C@@H](CCCCN)C(=O)N[C@@H](Cc1c[nH]c2ccccc12)C(=O)N[C@@H](CCCCN)C(=O)N[C@@H](CCC(=O)O)C(=O)N[C@@H](Cc1ccccc1)C(=O)N[C@@H](CC(C)C)C(=O)N[C@@H](CCCN=C(N)N)C(=O)N[C@@H](CCCN=C(N)N)C(=O)N[C@H](C(=O)N[C@@H](Cc1c[nH]c2ccccc12)C(=O)N[C@@H](CCCCN)C(N)=O)C(C)C` [GLLRKWGKKWKEFLRRVWK], the MIC in assay [3] and in assay [20] was 12.7 µM (≈ 32 µg/mL) throughout.

As for `C[C@@H]1NC(=O)[C@@H](NC(=O)[C@@H]2CCCN2C(=O)CN)CSSC[C@@H](C(=O)O)NC(=O)[C@H](CC(N)=O)NC(=O)[C@H](Cc2cnc[nH]2)NC(=O)[C@H](CC(=O)O)NC(=O)[C@H](CO)NC1=O` [GPCASDHNC], the MIC in assay [21] was at least 48 µM.

As for `NC(=O)CC[C@H](NC(=O)[C@H](CCC(N)=O)NC(=O)[C@H](CCC(=O)O)NC(=O)[C@H](Cc1ccccc1)NC(=O)[C@H](CCC(=O)O)NC(=O)[C@H](Cc1c[nH]c2ccccc12)NC(=O)[C@H](CCC(=O)O)NC(=O)[C@H](Cc1ccccc1)NC(=O)[C@H](CCCN=C(N)N)NC(=O)[C@H](CCC(N)=O)NC(=O)[C@@H](N)CCC(N)=O)C(N)=O` [QQRFEWEFEQQ], the minimal inhibitory concentration (MIC) in [22] is at least 329 µM; in assay [3] it was above 329 µM; in assay [23], above 329 µM; in assay [24], at least 329 µM; in assay [25], at least 329 µM; in assay [26], above 329 µM. In addition, the MIC in assay [17] was at least 329 µM; in assay [27], above 329 µM.
